The values that follow are results of earlier work, collected in article PMC12333940, “A prometabolite strategy inhibits cardiometabolic disease in an ApoE^–/– murine model of atherosclerosis” (JCI Insight, 2025).

On the set-up of this series: method as in printed. The note with it: oral administration of exogenous butyrate; background statement, ref not given; cited from earlier work.

On to `CCCC(=O)O` [butyrate, Butyrate], for which the “absorption into circulation, plasma concentration” value is 3 to 4 mM.
